The term half-life denotes how long it takes for the measured level to halve.

The values below come from ChEMBL document CHEMBL6114955, “Probing into the plasma stability and microsomal stability of thiol-based prodrug derivatives: Using IYS-15, an HDAC inhibitor as the model thiol” (Bioorg Med Chem, 2025).

The nature of data set [1]: Stability in human plasma assessed as half life at pH 7.4 measured upto 5 hrs by LC-MS/MS analysis. In kind it is ADME, cell-free.
Data set [2] can be described thus: Metabolic stability in human liver microsomes assessed as half life in presence of NADPH measured upto 60 mins by LC-MS/MS analysis. In kind it is ADME, Microsome. (In general: Liver microsomes are vesicles of endoplasmic reticulum, rich in cytochrome P450 enzymes.)
A short description of data set [3]: Metabolic stability in human liver microsomes assessed as half life in presence of NADPH measured upto 60 mins in presence of 5 mM BNPP carboxylesterase inhibitor by LC-MS/MS analysis. In kind it is ADME, Microsome. The settings on record: with BNPP (carboxylesterase inhibitor).
Data set [4] is described as follows: Metabolic stability in human liver microsomes assessed as half life in presence of NADPH measured upto 60 mins in presence of 2.5 mM ABT cytochrome P450 inhibitor by LC-MS/MS analysis. In kind it is ADME, Microsome. The settings on record: with ABT (cytochrome P450 inhibitor).
A short description of data set [5]: Metabolic stability in human liver microsomes assessed as half life in presence of NADPH measured upto 60 mins in presence of 50 uM furafylline by LC-MS/MS analysis. In kind it is ADME, Microsome. The settings on record: with furafylline.
Data set [6] is described as follows: Metabolic stability in human liver microsomes assessed as half life in presence of NADPH measured upto 60 mins in presence of 10 uM montelukast by LC-MS/MS analysis. The data set is classed as ADME, Microsome. The note with it: with montelukast.
The nature of data set [7]: Metabolic stability in human liver microsomes assessed as half life in presence of NADPH measured upto 60 mins in presence of 10 uM sulfaphenazole by LC-MS/MS analysis. In kind it is ADME, Microsome. The settings on record: with sulfaphenazole.
Data set [8] can be described thus: Metabolic stability in human liver microsomes assessed as half life in presence of NADPH measured upto 60 mins in presence of 8 uM quinidine by LC-MS/MS analysis. The settings on record: with quinidine. The data set is classed as ADME, Microsome.
Data set [9] in a line: Metabolic stability in human liver microsomes assessed as half life in presence of NADPH measured upto 60 mins in presence of 2 uM ketoconazole by LC-MS/MS analysis. The data set is classed as ADME, Microsome. The settings on record: with ketoconazole.
Data set [10] can be described thus: Metabolic stability in human liver microsomes assessed as half life in presence of NADPH measured upto 60 mins in presence of 2 uM ticlopidine by LC-MS/MS analysis. The data set is classed as ADME, Microsome. The settings on record: with ticlopidine.
Data set [11] is described as follows: Metabolic stability in human liver microsomes assessed as intrinsic clearance measured per mg of protein in presence of NADPH measured upto 60 mins in presence of 50 uM furafylline by LC-MS/MS analysis. The settings on record: 1 h. In kind it is ADME, Microsome.
The nature of data set [12]: Metabolic stability in human liver microsomes assessed as intrinsic clearance measured per mg of protein in presence of NADPH measured upto 60 mins in presence of 10 uM montelukast by LC-MS/MS analysis. The settings on record: 1 h. The data set is classed as ADME, Microsome.
Data set [13] is described as follows: Metabolic stability in human liver microsomes assessed as intrinsic clearance measured per mg of protein in presence of NADPH measured upto 60 mins in presence of 10 uM sulfaphenazole by LC-MS/MS analysis. In kind it is ADME, Microsome. The note with it: 1 h.
Data set [14] is described as follows: Metabolic stability in human liver microsomes assessed as intrinsic clearance measured per mg of protein in presence of NADPH measured upto 60 mins in presence of 8 uM quinidine by LC-MS/MS analysis. The settings on record: 1 h. In kind it is ADME, Microsome.
A short description of data set [15]: Metabolic stability in human liver microsomes assessed as intrinsic clearance measured per mg of protein in presence of NADPH measured upto 60 mins in presence of 2 uM ketoconazole by LC-MS/MS analysis. The settings on record: 1 h. The data set is classed as ADME, Microsome.
Data set [16] in a line: Metabolic stability in human liver microsomes assessed as intrinsic clearance measured per mg of protein in presence of NADPH measured upto 60 mins in presence of 2 uM ticlopidine by LC-MS/MS analysis. The data set is classed as ADME, Microsome. The note with it: 1 h.
Data set [17] in a line: Ratio of half life in human liver microsomes in presence of BNPP to t1/2 in human liver microsomes absence of BNPP. The data set is classed as ADME, Microsome.
Data set [18] is described as follows: Ratio of half life in human liver microsomes in presence of ABT to t1/2 in human liver microsomes absence of ABT. In kind it is ADME, Microsome.

Some results are limits rather than exact numbers.

For the molecule `CC(=O)NCSCCCCCCC(=O)Nc1nc(-c2ccc(F)cc2)cs1`, the half-life in data set [1] is more than 300 min; in data set [2], 6.81 min; in data set [3], 81.4 min; in data set [4], 65.8 min; in data set [5], 8.31 min; in data set [6] it was 14 min. Further, the half-life in data set [7] was 9.66 min; in data set [8], 8.68 min; in [9], 22.5 min; in data set [10], 8.09 min. Further, the CLint was determined as 253 µL/min/mg in data set [11]; 150 µL/min/mg in [12]; 218 µL/min/mg in [13]; 243 µL/min/mg in data set [14]; 93 µL/min/mg in [15]; 260 µL/min/mg in [16]. Moreover, the Ratio in data set [17] was 9.53; in data set [18] it was 7.71.
